Source: patent publication US20240209004A1, “BORIC ACID DERIVATIVE ACTING AS Beta-LACTAMASE INHIBITOR” (TUOJIE BIOTECH (SHANGHAI) CO., LTD., priority 2021, published 2024)
Where two headings read alike, the source gives them in different places.

Legend:
[1] = Single intravenous administration exposure, pharmacokinetics (Test Example 4); format: in vivo, ICR mice; conditions: ICR mice, single intravenous injection, plasma; for AUC(0-t) / AUC(0-inf) / Cmax / Tmax: mouse, in vivo; for AUC(0-t): read-out: AUC0-t; for AUC(0-inf): read-out: AUCinf; for Cmax: read-out: Cmax; for Tmax: read-out: Tmax
Experimental: The solutions were prepared on the day of administration and stored at 4° C.
Single intravenous injections were administered to ICR mice, which were grouped as follows. Blood was collected from the saphenous vein or the fundus venous plexus at 0.083 h, 0.25 h, 0.5 h, 1 h, 2 h, 4 h, 6 h and 12 h after administration (about 0.1 mL/time point). A biological analysis method was developed to determine plasma concentrations at different time points, and related pharmacokinetic parameters were calculated.

[2] = tested on: cefepime-resistant Klebsiella pneumoniae; experiment: MIC in combination with cefepime for drug-resistant bacteria (Test Example 2); format: cell-based; conditions: for MIC: Klebsiella pneumoniae, with CPM 8 μg/mL
Experimental: (§1) The biosafety cabinet was sterilized with ultraviolet light for 30 min. Glycerol tubes were taken out of a −80° C. freezer, and streaks were gently formed in the glycerol tubes using inoculating loops. Bacteria were inoculated onto MHIIA solid plates. The plates were incubated overnight in a 37° C. incubator.
(§2) 30 μL of compound stock solution was added to column 1 of a 96-well v-bottom plate, and DMSO was added to columns 2-10. Subsequently, 15 μL was transferred from column 1 to column 2 using a pipette and well mixed gently, and then 15 μL of solution was transferred from column 2 to column 3; the serial dilution process proceeded to column 10 (200×β-lactamase inhibitor working solutions were prepared). The antibiotic was diluted with a corresponding solvent to form a 1.6 mg/mL solution.

[3] = tested on: cefepime-resistant Escherichia coli; experiment: as above; format: cell-based; conditions: for MIC: Escherichia coli, with CPM 8 μg/mL
Experimental: as §1, §2

[4] = tested on: cefepime-resistant Acinetobacter baumannii; experiment: as above; format: cell-based; conditions: for concentration for achieving a bacteriostatic effect where the CPM MIC is fixed at 8 μg/mL: with CPM 8 μg/mL
Experimental: as §1, §2

[5] = tested on: cefepime-resistant Pseudomonas aeruginosa; experiment: as above; format: cell-based
Experimental: as §1, §2

[6] = tested on: cefepime-resistant Klebsiella pneumoniae expressing different types of β-lactamases; experiment: microbe, parasite or virus in culture; format: cell-based; conditions: for MIC: Klebsiella pneumoniae; for MIC, Cefepime + compound (8 ug/ml): inhibitor at 8 ug/ml
Experimental: as §1
30 μL of compound stock solution was added to column 1 of a 96-well v-bottom plate, and DMSO was added to columns 2-10. Subsequently, 15 μL was transferred from column 1 to column 2 using a pipette and well mixed gently, and then 15 μL of solution was transferred from column 2 to column 3: the serial dilution process proceeded to column 10 (200×β-lactamase inhibitor working solutions were prepared). The antibiotic was diluted with a corresponding solvent to form a 1.6 mg/mL solution.

[7] = summary in words of Test Example 2

O=C([O-])c1c2c(cc3c1O[B-](O)(O)[C@@H]1C[C@H]31)OCCO2.[Na+].[Na+] [Compound 1-1-Na]
t½z ([1]; 10 mg/kg): 115 min
t½z ([1]; 100 mg/kg): 178 min
AUC(0-t) ([1]; 10 mg/kg): 211 µg·h/mL
AUC(0-inf) ([1]; 10 mg/kg): 213 µg·h/mL
Cmax ([1]; 10 mg/kg): 146 µg/mL
Tmax ([1]; 10 mg/kg): 4.98 min
AUC(0-t) ([1]; 100 mg/kg): 1400 µg·h/mL
AUC(0-inf) ([1]; 100 mg/kg): 1540 µg·h/mL
Cmax ([1]; 100 mg/kg): 607 µg/mL
Tmax ([1]; 100 mg/kg): 4.98 min
MIC ([2]; read-out: concentration for achieving a bacteriostatic effect where the CPM MIC is fixed at 8 μg/mL, strain FDA-CDC AR-BANK#0003): 0.125 µg/mL
MIC ([2]; read-out: concentration for achieving a bacteriostatic effect where the CPM MIC is fixed at 8 μg/mL, strain FDA-CDC AR-BANK#0076): 0.25 µg/mL
MIC ([2]; read-out: concentration for achieving a bacteriostatic effect where the CPM MIC is fixed at 8 μg/mL, strain FDA-CDC AR-BANK#0080): 2 µg/mL
MIC ([2]; read-out: concentration for achieving a bacteriostatic effect where the CPM MIC is fixed at 8 μg/mL, strain FDA-CDC AR-BANK#0126): ≤ 0.0156 µg/mL
MIC ([2]; read-out: concentration for achieving a bacteriostatic effect where the CPM MIC is fixed at 8 μg/mL, strain FDA-CDC AR-BANK#0158): 2 µg/mL
restoring to cefepime antibacterial activity against cefepime-resistant Klebsiella pneumoniae [2, 7]: significantly restore to cefepime antibacterial activity
MIC ([3]; read-out: concentration for achieving a bacteriostatic effect where the CPM MIC is fixed at 8 μg/mL, strain FDA-CDC AR-BANK#0055): 1 µg/mL
MIC ([3]; read-out: concentration for achieving a bacteriostatic effect where the CPM MIC is fixed at 8 μg/mL, strain FDA-CDC AR-BANK#0114): 0.0312 µg/mL
MIC ([3]; read-out: concentration for achieving a bacteriostatic effect where the CPM MIC is fixed at 8 μg/mL, strain FDA-CDC AR-BANK#0370): 1 µg/mL
MIC ([3]; read-out: concentration for achieving a bacteriostatic effect where the CPM MIC is fixed at 8 μg/mL, strain FDA-CDC AR-BANK#0371): ≤ 0.0156 µg/mL
restoring to cefepime antibacterial activity against cefepime-resistant Escherichia coli [3, 7]: significantly restore to cefepime antibacterial activity
MIC ([4]; Acinetobacter baumannii, read-out: concentration for achieving a bacteriostatic effect where the CPM MIC is fixed at 8 μg/mL): > 16 µg/mL
concentration for achieving a bacteriostatic effect where the CPM MIC is fixed at 8 μg/mL ([4]; strain FDA-CDC AR-BANK#0035): >16 µg/mL
concentration for achieving a bacteriostatic effect where the CPM MIC is fixed at 8 μg/mL ([4]; strain FDA-CDC AR-BANK#0078): >16 µg/mL
MIC ([5]; read-out: concentration for achieving a bacteriostatic effect where the CPM MIC is fixed at 8 μg/mL, strain FDA-CDC AR-BANK#0246, with CPM 8 μg/mL): > 16 µg/mL
MIC ([5]; read-out: concentration for achieving a bacteriostatic effect where the CPM MIC is fixed at 8 μg/mL, strain FDA-CDC AR-BANK#0439, with CPM 8 μg/mL): > 16 µg/mL
MIC ([5]; read-out: concentration for achieving a bacteriostatic effect where the CPM MIC is fixed at 8 μg/mL, strain FDA-CDC AR-BANK#0441, with CPM 8 μg/mL): 8 µg/mL
MIC ([5]; read-out: concentration for achieving a bacteriostatic effect where the CPM MIC is fixed at 8 μg/mL, strain FDA-CDC AR-BANK#0444, with CPM 8 μg/mL): 16 µg/mL
MIC ([6]; ATCCBAA1705, read-out: MIC, single substance (1-1-Na, QPX7728, CPM), strain ATCC BAA-1705, KPC-2, TEM, SHV, Class A): > 128 µg/mL
MIC ([6]; ATCCBAA1898, read-out: MIC, single substance (1-1-Na, QPX7728, CPM), strain ATCC BAA-1898, KPC-2, Class A): > 128 µg/mL
MIC ([6]; ATCCBAA1899, read-out: MIC, single substance (1-1-Na, QPX7728, CPM), strain ATCC BAA-1899, KPC-2, Class A): 64 µg/mL
MIC ([6]; ATCCBAA2343, read-out: MIC, single substance (1-1-Na, QPX7728, CPM), strain ATCC BAA-2343, KPC, Class A): > 128 µg/mL
MIC ([6]; ATCCBAA2470, read-out: MIC, single substance (1-1-Na, QPX7728, CPM), strain ATCC BAA-2470, NDM-1, Class B): 64 µg/mL
MIC ([6]; read-out: MIC, single substance (1-1-Na, QPX7728, CPM), strain ARLG-1127 (Urine), KPC, KPC-3, TEM, TEM-1, Class A): > 128 µg/mL
MIC ([6]; read-out: MIC, single substance (1-1-Na, QPX7728, CPM), strain ARLG-1195, CTM-1 group, SHV, NDM, Class A, B): > 128 µg/mL
MIC ([6]; read-out: MIC, single substance (1-1-Na, QPX7728, CPM), strain ARLG-1196, CTM-1 group, SHV, NDM, TEM, Class A, B): 128 µg/mL
MIC, Cefepime + compound (8 ug/ml) ([6]; strain ARLG-1127 (Urine), KPC, KPC-3, TEM, TEM-1, Class A): 0.25 µg/mL
MIC, Cefepime + compound (8 ug/ml) ([6]; strain ARLG-1195, CTM-1 group, SHV, NDM, Class A, B): ≤0.125 µg/mL
MIC, Cefepime + compound (8 ug/ml) ([6]; strain ARLG-1196, CTM-1 group, SHV, NDM, TEM, Class A, B): ≤0.125 µg/mL
MIC, Cefepime + compound (8 ug/ml) ([6]; strain ATCC BAA-1705, KPC-2, TEM, SHV, Class A): <0.125 µg/mL
MIC, Cefepime + compound (8 ug/ml) ([6]; strain ATCC BAA-1898, KPC-2, Class A): <0.125 µg/mL
MIC, Cefepime + compound (8 ug/ml) ([6]; strain ATCC BAA-1899, KPC-2, Class A): ≤0.125 µg/mL
MIC, Cefepime + compound (8 ug/ml) ([6]; strain ATCC BAA-2343, KPC, Class A): 0.25 µg/mL
MIC, Cefepime + compound (8 ug/ml) ([6]; strain ATCC BAA-2470, NDM-1, Class B): ≤0.125 µg/mL
